Measurements from PubChem BioAssay AID1963865 (Molecular Pharmacology Branch, DTP, NCI, 2024).
Values joined by “and” are separate entries in the source; they are usually repeats but may differ in a detail not shown here. Identical values can stand only once.

Test system: KRAS PDC multicell spheroid viability
Assay: Anticancer human tumor 825966-067-R-J1-PDC patient-derived colon carcinoma cell line growth inhibition [KRAS2]
Conditions: for viability, T/C: stronger effect = lower value
How it was run: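 KRAS-mutant tumor cells were grown as spheroids with HUVEC endothelial cells and human MSCs as stroma. Targeted agents were tested alone and with KRAS pathway inhibitors. Doses started at or near clinical Cmax, or 10 microM, descending half-log.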

[1] = curve of first compound, second compound 0.1 µM
[2] = curve of first compound, second compound 0.316 µM
[3] = curve of first compound, second compound 1 µM
[4] = curve of first compound, second compound 3.16 µM
[5] = curve of first compound, second compound 10 µM
[6] = second compound 0.1 µM, first compound 0.01 µM
[7] = second compound 0.1 µM, first compound 0.0316 µM
[8] = second compound 0.1 µM, first compound 0.1 µM
[9] = second compound 0.316 µM, first compound 0.01 µM
[10] = second compound 0.316 µM, first compound 0.0316 µM
[11] = second compound 0.316 µM, first compound 0.1 µM
[12] = second compound 1 µM, first compound 0.01 µM
[13] = second compound 1 µM, first compound 0.0316 µM
[14] = second compound 1 µM, first compound 0.1 µM
[15] = second compound 3.16 µM, first compound 0.01 µM
[16] = second compound 3.16 µM, first compound 0.0316 µM
[17] = second compound 3.16 µM, first compound 0.1 µM
[18] = second compound 10 µM, first compound 0.01 µM
[19] = second compound 10 µM, first compound 0.0316 µM
[20] = second compound 10 µM, first compound 0.1 µM
[21] = second compound 0.1 µM, first compound 0.316 µM
[22] = second compound 0.1 µM, first compound 1 µM
[23] = second compound 0.1 µM, first compound 3.16 µM
[24] = second compound 0.316 µM, first compound 0.316 µM
[25] = second compound 0.316 µM, first compound 1 µM
[26] = second compound 0.316 µM, first compound 3.16 µM
[27] = second compound 1 µM, first compound 0.316 µM
[28] = second compound 1 µM, first compound 1 µM
[29] = second compound 1 µM, first compound 3.16 µM
[30] = second compound 3.16 µM, first compound 0.316 µM
[31] = second compound 3.16 µM, first compound 1 µM
[32] = second compound 3.16 µM, first compound 3.16 µM
[33] = second compound 10 µM, first compound 0.316 µM
[34] = second compound 10 µM, first compound 1 µM
[35] = second compound 10 µM, first compound 3.16 µM
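Further: spheroids exposed to compounds for 7 days.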
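Wherever viability, T/C is given: 100% = DMSO vehicle control viability.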

Compound | IC50 [1] [µM] | IC50 [2] [µM] | IC50 [3] [µM] | IC50 [4] [µM] | IC50 [5] [µM] | viability, T/C [6] [%] | viability, T/C [7] [%] | viability, T/C [8] [%] | viability, T/C [9] [%] | viability, T/C [10] [%] | viability, T/C [11] [%] | viability, T/C [12] [%] | viability, T/C [13] [%] | viability, T/C [14] [%] | viability, T/C [15] [%] | viability, T/C [16] [%] | viability, T/C [17] [%] | viability, T/C [18] [%] | viability, T/C [19] [%] | viability, T/C [20] [%] | further results
CC(C)n1nc(-c2ccc3oc(N)nc3c2)c2c(N)ncnc21 + COc1cc2nc(C)nc(NC(C)c3cc(N)cc(C(F)(F)F)c3)c2cc1OC1CCOC1 | > 0.1 | > 0.1 | > 0.1 | > 0.1 | < 0.000316 | 154 | 79 | 99.4 | 137 | 84 | 81.7 | 131 | 82.8 | 75.2 | 63.7 | 82.2 | 81.5 | 12.3 | 11.2 | 3.11 | viability, T/C (second compound 0.1 µM, first compound 0.000316 µM): 59.7%; viability, T/C (second compound 0.1 µM, first compound 0.001 µM): 93.1%; viability, T/C (second compound 0.1 µM, first compound 0.00316 µM): 125%; viability, T/C (second compound 0.316 µM, first compound 0.000316 µM): 97.1%; viability, T/C (second compound 0.316 µM, first compound 0.001 µM): 99%; viability, T/C (second compound 0.316 µM, first compound 0.00316 µM): 116%; viability, T/C (second compound 1 µM, first compound 0.000316 µM): 100%; viability, T/C (second compound 1 µM, first compound 0.001 µM): 103%; viability, T/C (second compound 1 µM, first compound 0.00316 µM): 123%; viability, T/C (second compound 3.16 µM, first compound 0.000316 µM): 115%; viability, T/C (second compound 3.16 µM, first compound 0.001 µM): 109%; viability, T/C (second compound 3.16 µM, first compound 0.00316 µM): 121%; viability, T/C (second compound 10 µM, first compound 0.000316 µM): 6.15%; viability, T/C (second compound 10 µM, first compound 0.001 µM): 2.53%; viability, T/C (second compound 10 µM, first compound 0.00316 µM): 15.6%
CC(=O)OC12COC1CC(O)C1(C)C(=O)C(O)C3=C(C)C(OC(=O)C(O)C(NC(=O)OC(C)(C)C)c4ccccc4)CC(O)(C(OC(=O)c4ccccc4)C21)C3(C)C (stereo not drawn) + CNCc1ccccc1-c1csc(C(C)Nc2nc(C)nc3cc(OC)c(OC)cc23)c1 | < 0.01 | < 0.01 | < 0.01 | < 0.01 | < 0.01 | 21.7 | 14.4 | 17.6 | 17.2 | 10.2 | 11.7 | 12.6 | 17.5 | 11.6 | 0.14 | 15.2 | 1.18 | 2.23 | 1.24 | 0.96 | viability, T/C [21]: 15.7%; viability, T/C [22]: 18.1%; viability, T/C [23]: 23.4%; viability, T/C [24]: 11.5%; viability, T/C [25]: 14.3%; viability, T/C [26]: 18.6%; viability, T/C [27]: 13%; viability, T/C [28]: 15.5%; viability, T/C [29]: 16.2%; viability, T/C [30]: 0.07%; viability, T/C [31]: 0.57%; viability, T/C [32]: 24.8%; viability, T/C [33]: 0.12%; viability, T/C [34]: 0.12%; viability, T/C [35]: 0.18%
CC1COCCN1c1cc(-c2ccnn2C)c2ccnc(-c3ccn[nH]3)c2n1 (stereo not drawn) + CNCc1ccccc1-c1csc(C(C)Nc2nc(C)nc3cc(OC)c(OC)cc23)c1 | 0.244 | 0.278 | 0.122 | < 0.01 | < 0.01 | 111 | 129 | 89.2 | 132 | 131 | 75.8 | 104 | 91.5 | 56.8 | 29.4 | 8.68 | 1.56 | 0.18 | 0.15 | 0.12 | viability, T/C [21]: 34.4%; viability, T/C [22]: 44.4%; viability, T/C [23]: 37.3%; viability, T/C [24]: 54%; viability, T/C [25]: 49.5%; viability, T/C [26]: 30.3%; viability, T/C [27]: 18.3%; viability, T/C [28]: 14.2%; viability, T/C [29]: 2.54%; viability, T/C [30]: 2.53%; viability, T/C [31]: 0.56%; viability, T/C [32]: 0.39%; viability, T/C [33]: 0.52%; viability, T/C [34]: 0.12%; viability, T/C [35]: 0.19%
CC(C)NCC(C(=O)N1CCN(c2ncnc3c2C(C)CC3O)CC1)c1ccc(Cl)cc1 (stereo not drawn) | – | – | – | – | – | – | – | – | – | – | – | – | – | – | – | – | – | – | – | – | viability, T/C (compound 0.316 µM): 113% [middle of 5 runs]; viability, T/C (compound 3.16 µM): 32.6% [middle of 5 runs]; viability, T/C (compound 10 µM): 10% [middle of 5 runs]; IC50 (curve of compound): 2.24 µM [middle of 5 runs]
CC(=O)Nc1cccc(-n2c(=O)n(C3CC3)c(=O)c3c(Nc4ccc(I)cc4F)n(C)c(=O)c(C)c32)c1 | – | – | – | – | – | – | – | – | – | – | – | – | – | – | – | – | – | – | – | – | viability, T/C (compound 0.0001 µM): 96.8% [middle of 5 runs]; viability, T/C (compound 0.000316 µM): 94.2% [middle of 5 runs]; viability, T/C (compound 0.01 µM): 104% [middle of 5 runs]; IC50 (curve of compound): > 0.0316 µM and 0.028 µM
COC(=O)c1ccc2c(C(=Nc3ccc(N(C)C(=O)CN4CCN(C)CC4)cc3)c3ccccc3)c(O)[nH]c2c1 + CC1OCC2(CCN(c3cnc(Sc4ccnc(N)c4Cl)c(N)n3)CC2)C1N | 0.739 | 1.61 | 0.611 | 0.57 | < 0.0316 | – | 100 | 77.4 | – | 83.5 | 85.1 | – | 96 | 83.1 | – | 89.7 | 92.2 | – | 24.4 | 32.6 | viability, T/C [21]: 83.1%; viability, T/C [22]: 38.8%; viability, T/C [23]: 0.34%; viability, T/C (second compound 0.1 µM, first compound 10 µM): 0.23%; viability, T/C [24]: 84.3%; viability, T/C [25]: 88.5%; viability, T/C [26]: 0.25%; viability, T/C (second compound 0.316 µM, first compound 10 µM): 0.21%; viability, T/C [27]: 92.5%; viability, T/C [28]: 19.6%; viability, T/C [29]: 0.22%; viability, T/C (second compound 1 µM, first compound 10 µM): 0.2%; viability, T/C [30]: 86.4%; viability, T/C [31]: 15.2%; viability, T/C [32]: 0.17%; viability, T/C (second compound 3.16 µM, first compound 10 µM): 0.19%; viability, T/C [33]: 5.99%; viability, T/C [34]: 2.24%; viability, T/C [35]: 0.2%; viability, T/C (second compound 10 µM, first compound 10 µM): 0.32%
